Test results published in US8586571B2, “Heterocyclic compound” (Takeda Pharmaceutical Company Limited, priority 2007, dated 2013).

Key:
human RBP4 = human RBP4 (Homo sapiens (Human), UniProt P02753); assay: Binding assay by Retinol-RBP4-TTR ELISA (human-type ELISA); conditions: inhibition of binding of RBP4 with retinol and TTR; retinol 0.5 μM; read-out: human RBP4 binding inhibitory activity (IC50 nM)
Method: The action of the compound of the present invention to inhibit binding of RBP4 and retinol and TTR was evaluated using the Retinol-RBP4-TTR ELISA (human-type ELISA) system shown below.
Binding Assay by Retinol-RBP4-TTR ELISA
This ELISA system detects a complex of retinol, RBP4 and TTR by Streptoavidin-Biotin reaction.
His-tagged human RBP4 used was prepared in the above-mentioned 1C.
Biotinylate human TTR used was prepared in the above-mentioned 1E.
Streptavidin (20 μl) (10 μg/ml Streptavidin type II (Wako Pure Chemical Industries, Ltd.), 10 mM Tris-HCl (pH 7.5), 10 mM NaCl) was added to a 384 well black maxisorp plate (Nunc), and the plate was subjected to centrifugation (1000 rpm, 1 min) and coated overnight at 4° C. The plate was washed twice with PBST (PBS, 0.05% Tween 20, 100 μl/well) and blocked with 25% Block Ace (Snow Brand Milk Products Co., Ltd., PBS, 100 μl/well). The plate was subjected to centrifugation (1000 rpm, 1 min) and incubated at room temperature for 4 hr or overnight at 4° C. The plate was washed twice with PEST (PBS, 0.05% Tween 20, 100 μl/well), and biotinylated human TTR (stock solution concentration 1.3 mg/ml) diluted 1000-fold with PBST was added at 20 μl/well. The plate was subjected to centrifugation (1000 rpm, 1 min) and stood still at room temperature for 1.5 hr or overnight at 4° C. The plate was washed 3 times with PBST (100 μl/well), and His-tagged human RBP4 (stock solution concentration 0.96 mg/ml) diluted 4000-fold with a reaction buffer (50 mM Tris-HCl, 150 mM NaCl, 0.005% Tween 20, 1 mM DTT, 0.1% BSA) was added at 10 μl/well. The dilution series (8 doses from 10 mM, 200-fold concentration) of the compound was prepared with DMSO, and 1 μl of each was added to a reaction buffer (200 μl) containing retinol (0.5 μM) (Sigma-Aldrich Co.). A reaction buffer (200 μl) containing retinol and added with DMSO was used as a positive control, and reaction buffer (200 μl) free of retinol and added with DMSO was used as a negative control. Mixed solutions of retinol and the compound were added to the plate at 15 μl/well. The mixture was stirred in a platemixer subjected to centrifugation (1000 rpm, 1 min) and reacted at room temperature for 2 hr. A 35% Block Ace solution diluted with the reaction buffer was added at 10 μl/well, centrifuged (1000 rpm, 1 min) and reacted at room temperature for 30 min. The plate was washed 3 times with PBST (100 μl/well) and SuperSignal ELISA Femto Maximum Sensitivity Substrate reagent (PIERCE) was added at 30 μl/well, and the luminescence was measured by a platereader (Wallac).
The binding inhibitory rate of the compound was determined by 100×(test compound value-negative control value)/(positive control value-negative control value). The binding activity (IC50) was calculated from the binding inhibitory rate at each compound concentration using a graph drawing software, Prism (GraphPad Software Inc.).

RBP4 = RBP4 (Mus musculus (Mouse), UniProt Q00724); assay: Blood RBP4 lowering action in C57BL/6J mouse (plasma RBP4 by ELISA); assay type: in vivo; conditions: mean±SD (n=5)
Method: A blood RBP4 lowering action of the compound of the present invention was evaluated using C57BL/6J mouse.
Male 7- to 15-week-old C57BL/6J mice (Charles River Laboratories Japan Inc.) were individually bred for acclimation for 4-6 days under conditions with free access to CE-2 solid food (CLEA Japan, Inc.), and grouped based on the body weight (5 per group). The next day of grouping, blood samples were collected from the orbital venous plexus, and plasma was separated (0 hr value). Thereafter, the test compounds (Examples 12, 143, 164, 189, 197, 207 and 215) were orally administered at a dose of 50 mg/kg (solvent: 0.5% methylcellulose solution (10 mL/kg)). At 4, 7 and 24 hr after administration of the compounds, blood samples were collected from the orbital venous plexus, and plasma was separated. A 0.5% methylcellulose solution (10 mL/kg) was orally administered to the control group.
The RBP4 level of the collected plasma was measured by ELISA. RBP4 was quantified by the following steps using a rabbit anti-mouse RBP4 polyclonal antibody (Hokudo Co., Ltd). A 96 well ELISA plate was coated with 50 μg/mL of the antibody (100 μL) and stood at 4° C. overnight. After blocking with BlockAce (DAINIPPON PHARMACEUTICAL CO., LTD.), mouse RBP4 or a sample (100 μL) was added and the plate was stood at room temperature for 2 hr. After washing with PBS-0.5% Tween 20, HRP-labeled anti-RBP4 antibody (prepared by labeling RBP4 polyclonal antibody (Hokudo Co., Ltd) with HRP (DOJINDO LABORATORIES)) was added by 100 μL, and the plate was stood at room temperature for 1 hr. After washing, TMB (Dako Cytomations) was added, and the mixture was stood at room temperature for 20 min to allow color development, and the reaction was quenched with 2N sulfuric acid. Thereafter, the absorbance at A450 nm was measured on a platereader. The amount of change from the initial value of each animal was determined as a relative value from the control group (% of initial/Control) at each time point. The results are shown in the following in mean±standard deviation (n=5).

Zucker fa/fa rat = assay: TG-lowering action using Zucker fa/fa rat (Charles River Laboratories Japan Inc.); assay type: in vivo; conditions: oral 30 mg/kg for 2 weeks
Method: An anti-diabetes action and a blood triglyceride (hereinafter TG)-lowering action of the compound of the present invention were evaluated using Zucker fa/fa rats.
Male 10-week-old Zucker fa/fa rats (Charles River Laboratories Japan Inc.) were bred in group on CE-2 solid food (CLEA Japan, Inc.) until 12-week-old for acclimation under conditions with free access to food. At 12-week-old, the rats were grouped based on the body weight, blood glucose level, glycated hemoglobin level, blood RBP4 level and blood triglyceride blood (hereinafter TG) (5 per group). Thereafter, the test compound (Example 12) was orally administered at a dose of 30 mg/kg (solvent: 0.5% methylcellulose solution (3 mL/kg)) for 2 weeks. The next day of the final administration of the compound, blood samples were collected from the tail vein, and plasma was separated. Using the collected plasma, (1) RBP4 concentration and (2) TG level were measured. (1) was quantified according to the protocol described in Experimental Example 2. (2) was measured using Hitachi fully automatic analyzer (Model 7070).
A 0.5% methylcellulose solution (5 mL/kg) was orally administered to the control group. […] The results are shown in the following in mean±standard deviation (n=5).

Which IC50 (human RBP4) does the source give for CC(C)(C)c1ccccc1OC1CN(C(=O)CCC(=O)O)C1 [Example 12, 4-(3-(2-tert-butylphenoxy)azetidin-1-yl)-4-oxobutanoic acid] here?
Its IC50 is 210 nM.

And the “RBP4 (% of initial/Control) 4 hr later” value (RBP4; 4 hr after single oral 50 mg/kg)?
Its value is 57.7 ± 3.6 % of initial/Control.

What about the “RBP4 (% of initial/Control) 7 hr later” value (RBP4; 7 hr after single oral 50 mg/kg) of the same compound?
Its value is 44.3 ± 2.0 % of initial/Control.

What about the “RBP4 (% of initial/Control) 24 hr later” value (RBP4; 24 hr after single oral 50 mg/kg) of the same compound?
Its value is 50.0 ± 3.4 % of initial/Control.

What about the “TG (result in words)” value (Zucker fa/fa rat; versus control) of the same compound?
The value was “significant decrease”.

What about the “blood RBP4 concentration (result in words)” value (Zucker fa/fa rat; versus control) of the same compound?
Its value is “significant decrease”.

What about the “RBP4” value (Zucker fa/fa rat; plasma, mean±SD (n=5)) of the same compound?
Its value is 8.2 ± 1.1 µg/mL.

And the “TG” value (Zucker fa/fa rat; plasma, mean±SD (n=5))?
The value was 650.8 ± 130.6 mg/dL.
